Assays:
Assay in all cases: relative viability (nuclei count vs DMSO), 5 days (fraction); higher = more cells survive
[1] = compound: CC1=CC(=CC=C1)NC2=NC(=CS2)C3=CC=NC=C3 + CC(=O)c1c(C)c2cnc(Nc3ccc(N4CCNCC4)cn3)nc2n(C2CCCC2)c1=O [Palbociclib] (partner 0.5 µM)
How it was run: (§1)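 Five library-drug doses in √10 steps were combined with a fixed anchor-drug dose, or a single drug was given alone, by pin tool to lung cancer cell lines in 1536-well plates the day after seeding. Nuclei were stained and counted after 5 days. Relative viability is the nuclei count in treated wells over that in vehicle wells, taken as the median of duplicate plates.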

[2] = compound: CC1=CC(=CC=C1)NC2=NC(=CS2)C3=CC=NC=C3 + NC(=O)Nc1cc(-c2cccc(F)c2)sc1C(=O)N[C@H]1CCCNC1 [AZD7762] (partner 0.2 µM)
How it was run: as §1

Masitinib + Crizotinib = compound: Cc1ccc(NC(=O)c2ccc(CN3CCN(C)CC3)cc2)cc1Nc1nc(-c2cccnc2)cs1 [Masitinib] + C[C@@H](Oc1cc(-c2cnn(C3CCNCC3)c2)cnc1N)c1c(Cl)ccc(F)c1Cl [Crizotinib] (partner 1 µM)
How it was run: as §1

Masitinib + Decitabine = compound: Cc1ccc(NC(=O)c2ccc(CN3CCN(C)CC3)cc2)cc1Nc1nc(-c2cccnc2)cs1 [Masitinib] + Nc1ncn([C@H]2C[C@H](O)[C@@H](CO)O2)c(=O)n1 [Decitabine] (partner 2 µM)
How it was run: as §1

| Cell Line | relative viability ([1]; first compound 0.08 µM) | relative viability ([1]; first compound 0.253 µM) | relative viability ([1]; first compound 0.8 µM) | relative viability ([1]; first compound 2.53 µM) | relative viability ([1]; first compound 8 µM) | relative viability ([2]; first compound 0.08 µM) | relative viability ([2]; first compound 0.253 µM) | relative viability ([2]; first compound 0.8 µM) | relative viability ([2]; first compound 2.53 µM) | relative viability ([2]; first compound 8 µM) | relative viability (Masitinib + Crizotinib; first compound 0.01 µM) | relative viability (Masitinib + Crizotinib; first compound 0.03162 µM) | relative viability (Masitinib + Crizotinib; first compound 0.1 µM) | relative viability (Masitinib + Crizotinib; first compound 0.3162 µM) | relative viability (Masitinib + Crizotinib; first compound 1 µM) | relative viability (Masitinib + Decitabine; first compound 0.01 µM) | relative viability (Masitinib + Decitabine; first compound 0.03162 µM) | relative viability (Masitinib + Decitabine; first compound 0.1 µM) | relative viability (Masitinib + Decitabine; first compound 0.3162 µM) | relative viability (Masitinib + Decitabine; first compound 1 µM) |
| --- | --- | --- | --- | --- | --- | --- | --- | --- | --- | --- | --- | --- | --- | --- | --- | --- | --- | --- | --- | --- |
| HCC-15 | 0.74 | 0.641 | 0.631 | 0.562 | 0.653 | 1.11 | 1.19 | 1.03 | 1.03 | 1.02 | 0.745 | 0.826 | 0.798 | 1.04 | 0.976 | 0.58 | 0.546 | 0.659 | 0.582 | 0.638 |
| A-427 | 0.473 | 0.531 | 0.485 | 0.538 | 0.5 | 0.646 | 0.795 | 0.815 | 0.81 | 0.646 | – | 0.889 | – | 0.845 | 0.783 | 0.491 | 0.539 | 0.567 | 0.515 | 0.541 |
| NCI-H23 | 0.37 | 0.459 | 0.518 | 0.479 | 0.524 | 0.283 | 0.276 | 0.213 | 0.244 | 0.223 | 0.524 | 0.423 | 0.597 | 0.463 | 0.465 | 0.312 | 0.346 | 0.341 | 0.274 | 0.262 |
| NCI-H1755 | 0.432 | 0.429 | 0.412 | 0.442 | 0.393 | 0.491 | 0.418 | 0.46 | 0.486 | 0.376 | – | 0.804 | 0.866 | 0.816 | 0.828 | 0.612 | 0.711 | 0.733 | 0.709 | 0.647 |
| LU99A | 0.387 | 0.384 | 0.42 | 0.39 | 0.468 | 0.36 | 0.326 | 0.361 | 0.374 | 0.442 | 0.592 | 0.629 | 0.62 | 0.639 | 0.527 | 0.921 | 0.916 | 0.901 | 0.997 | 0.986 |
| PC-3 [JPC-3] | 0.542 | – | 0.503 | 0.477 | 0.481 | 0.711 | – | 1.11 | 0.712 | 0.663 | 1.02 | 0.974 | 0.975 | 0.968 | 1.01 | 0.828 | 0.771 | 0.824 | 0.819 | 0.785 |
| NCI-H1975 | 0.497 | 0.416 | 0.51 | 0.374 | 0.241 | 0.579 | 0.532 | 0.591 | 0.462 | 0.439 | 0.948 | 0.88 | 1.06 | 0.872 | 0.926 | 0.324 | 0.417 | 0.381 | 0.293 | 0.34 |
| HCC-366 | 0.372 | 0.343 | 0.274 | 0.275 | 0.257 | 0.32 | 0.322 | 0.266 | 0.24 | 0.128 | 0.467 | 0.517 | 0.721 | 0.334 | 0.444 | – | 0.339 | 0.369 | 0.389 | 0.33 |
| NCI-H727 | 0.725 | – | 0.541 | – | 0.695 | 0.669 | – | 0.745 | – | 0.507 | 0.824 | 0.844 | 0.925 | 0.778 | 0.91 | 0.808 | 1.03 | 0.763 | 0.729 | 0.781 |
| RERF-LC-KJ | 1 | 0.998 | 0.743 | 0.787 | 0.618 | 1.09 | 0.691 | 0.775 | 0.222 | 0.911 | 0.853 | 0.901 | 0.79 | 0.755 | 0.759 | 0.631 | 0.71 | 0.743 | 0.762 | 0.618 |
| LC-2-ad | 0.469 | 0.532 | 0.466 | 0.542 | 0.436 | 0.823 | 0.845 | 0.911 | 0.835 | 0.821 | 0.347 | 0.399 | 0.466 | 0.473 | 0.373 | 0.837 | 0.795 | 0.85 | 0.795 | 0.894 |
| NCI-H1651 | 0.492 | 0.486 | 0.507 | 0.523 | 0.543 | 0.5 | 0.473 | 0.416 | 0.426 | 0.366 | 0.802 | 0.89 | 0.819 | 0.839 | 0.839 | 0.551 | 0.674 | 0.595 | 0.598 | 0.584 |
| BEN | 0.457 | 0.521 | 0.424 | 0.489 | 0.482 | 0.641 | 0.614 | 0.662 | 0.566 | 0.659 | 0.888 | 0.834 | 1.09 | 1.18 | 0.765 | 0.727 | 0.739 | 0.753 | 0.699 | 0.728 |
| EMC-BAC-2 | 0.495 | 0.496 | 0.526 | 0.504 | 0.454 | 0.933 | 1.02 | 1.14 | 0.909 | 1.17 | 0.655 | 0.648 | 0.845 | 0.705 | 0.82 | 0.771 | – | 0.918 | 1.02 | 0.957 |
| LXF-289 | 0.57 | 0.642 | 0.57 | 0.645 | 0.553 | 1.04 | 1.12 | 1.04 | 1.2 | 0.964 | 0.701 | 0.783 | 0.818 | 0.835 | 0.802 | 0.332 | 0.394 | 0.435 | 0.369 | 0.41 |
| ABC-1 | 0.627 | – | 0.944 | 0.795 | 0.473 | 0.675 | 0.613 | 0.688 | 0.628 | 0.881 | 0.965 | 1.17 | 1.15 | 1.12 | 1.18 | 1.02 | 1.14 | 1.24 | 1.06 | 0.865 |
| NCI-H358 | 0.132 | 0.15 | 0.151 | 0.144 | 0.129 | – | 0.594 | 0.532 | 0.521 | 0.542 | 0.406 | 0.534 | 0.588 | 0.473 | 0.533 | 0.184 | 0.195 | 0.243 | 0.189 | 0.192 |

From the supplement of paper PMC10307832
